# How the values were obtained:
# [1] = molecular target: T1, human melatonin 1 receptors (human MT1 receptors) (Homo sapiens, UniProt P48039); assay: Melatonin receptor binding inhibitory test (2-[125I] Iodomelatonin), MT1; details: membrane fraction of CHO-hMelR7 cells, 25° C. for 2.5 hr
# T1 construct: expressed in transfected cells; membrane fraction used
# Procedure: (§1) Melatonin receptor binding inhibitory test
# (1) Preparation of CHO-hMelR7 Cells Expressing Human Melatonin 1 Receptors
# A cDNA fragment (SEQ ID NO: 1) encoding full-length of human melatonin 1 receptors (human MT1 receptors) was incorporated into expression vector pAKKO-111H (former name pAKKO1.11H; Biochim Biophys Acta. Vol. 1219(2), pp. 251-259, 1994) to give plasmid pAKKO-hMelR7 for animal cell expression. CHO/dhfr-cells (ATCC, #CRL-9096) were plated at a concentration of 0.3×10^6 cells/dish in a 6 cm culture dish (Becton Dickinson), and cultured under the conditions of 37° C., 5% CO2 for 48 hr. The cells were transfected with pAKKO-hMelR7 plasmid DNA (5 μg) using Cellphect Transfection Kit (Amersham, #27-9268-01). The transfected cells were cultured in Dulbecco's modified Eagle medium (DMEM) (Sigma, #D6046) containing 10% dialyzed FBS (Biowest, #S180D), 1× Non-Essential Amino Acid (Invitrogen, #11140-050) and 50 μg/mL Gentamycin (Invitrogen, #15750-060), and the cell line that stably expressed the plasmid gene was selected. By a receptor binding assay using 2-[^125I] Iodomelatonin, CHO-hMelR7 cell line showing specific binding of 2-[^125I] Iodomelatonin was selected from the obtained clones.
# (§2) (3) Preparation of Cellular Membrane Fraction of CHO Cell (CHO-hMelR7 and CHO-hMT2) Stably Expressing Human MT1 and MT2 Receptors
# (§3) CHO-hMelR7 and CHO-hMT2 cells were plated using Cellfactory (Nunc, #170009) under the conditions of 1×10^8 cells/2000 mL/flask. The cells were grown to confluent, and recovered by the following method. As the medium for CHO-hMelR7 and CHO-hMT2, MEM α containing 10% FBS and penicillin/streptomycin was used. […] of geneticin was added to the medium for CHO-hMT2.
# (§4) The medium was discarded, cells were washed twice with 200 mL of EDTA/PBS(−), 200 mL of EDTA/PBS(−) was further added, and the cells were stood still at room temperature for 20 min until they were released. The cells were recovered in four 50 mL tubes (Becton Dickinson, #352070), and centrifuged at 1,500 rpm for 10 min at 4° C. using a low speed cooling centrifuge (Hitachi, CF7D2). The supernatant was discarded, the pellets in the four tubes were suspended in 10 mL of PBS(−), and combined in one tube (Becton Dickinson, #352070). The mixture was further centrifuged at 1,500 rpm for 10 min at 4° C., and the obtained pellets were suspended in 20 mL of ice-cooled homogenizing buffer [10 mM NaHCO3, 5 mM EDTA, Protease inhibitor Complete (Roche), pH 7.4]. The cell suspension was homogenized 3 times using a polytron homogenizer at 20,000 rpm for 30 sec. The obtained homogenate was centrifuged (2,000 rpm, 10 min, 4° C.) using a low speed cooling centrifuge. The supernatant was recovered in an ultracentrifugation tube and ultracentrifuged (40,000 rpm, 60 min, 4° C.) using an ultracentrifuge (Beckman, L-90K). To the obtained pellets was added a suspending buffer [50 mM Tris-HCl, 1 mM EDTA, Protease inhibitor Complete (Roche), pH 7.4], and the pellets were suspended by pipetting. The protein concentration of this suspension was measured, diluted to 2 mg/mL to give cellular membrane fractions of CHO-hMelR7 and CHO-hMT2 cells. The membrane fractions were dispensed to 1.5 mL tubes (Eppendorf, #0030120.086) by 100 μL, preserved in a freezer (−80° C.) and used for a binding assay. Protein was quantified using BCA protein assay kit (Pierce) with BSA as the standard.
# (§5) (4) Preparation of Membrane Fraction Suspension
# (§6) Immediately before use, the membrane fractions of CHO-hMelR7 and CHO-hMT2 cells of the above-mentioned (3) were diluted 20-fold with assay buffer (50 mM Tris-HCl, pH 7.7).
# (§7) (5) Preparation of 2-[^125I] Iodomelatonin Solution
# (§8) 2-[^125I] Iodomelatonin (#NEX236, PerkinElmer) was diluted with the assay buffer to 400 pM for MT1 and 1 nM for MT2.
# (§9) The assay buffer (80 μL) of the above-mentioned (4) was added to each well of a 96-well plate (type 3363, Corning). […]
# [2] = molecular target: T2, human melatonin 2 receptors (human MT2 receptors) (Homo sapiens, UniProt P49286); assay: Melatonin receptor binding inhibitory test (2-[125I] Iodomelatonin), MT2; details: membrane fraction of CHO-hMT2 cells, 25° C. for 2.5 hr
# T2 construct: expressed in transfected cells; membrane fraction used
# T2 sequence (P49286 1-362): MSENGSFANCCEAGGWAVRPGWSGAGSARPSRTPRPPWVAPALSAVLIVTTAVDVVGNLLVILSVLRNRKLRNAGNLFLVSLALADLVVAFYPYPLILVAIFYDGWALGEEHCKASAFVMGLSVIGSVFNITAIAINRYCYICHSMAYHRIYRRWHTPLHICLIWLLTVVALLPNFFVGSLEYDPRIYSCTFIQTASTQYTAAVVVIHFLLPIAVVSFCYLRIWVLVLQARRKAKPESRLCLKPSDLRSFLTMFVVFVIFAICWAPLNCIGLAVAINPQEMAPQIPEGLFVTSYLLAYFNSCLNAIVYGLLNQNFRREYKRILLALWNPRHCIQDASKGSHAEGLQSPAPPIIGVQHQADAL
# Procedure: as §1
# (2) Preparation of CHO-hMT2 Cells Expressing Human Melatonin 2 Receptors
# A cDNA fragment (SEQ ID NO: 2) encoding full-length of human melatonin 2 receptors (human MT2 receptors) was incorporated into expression vector pCMV-Script (Stratagene, #212220) to give the plasmid that was pCMV-human MT2 receptors expression vector for animal cell expression. CHO-K1 cells (ATCC, #CCL-61) were plated at the concentration of 1.5×10^5 cells/cm^2 in a 6 well plate (ASAHI TECHNO GLASS), and cultured under the conditions of 37° C., 5% CO2 for 24 hr. For gene transfection, solution obtained by blending pCMV-human MT2 receptors expression vector (1.9 μg), Lipofectamine Transfection Reagent (Invitrogen, #18324-012) (11.3 μL) and Minimum Essential Medium Eagle (MEM) medium (Sigma, M8042) (93.8 μL), and reacting at room temperature for 20 min was added to the cells per one well. The transfected cells were cultured in MEM medium containing 10% FBS (Life Technology) and 300 μg/mL Geneticin (GIBCO, #10131), and the cell line that stably expressed the plasmid gene was selected. By a receptor binding assay using 2-[^125I] Iodomelatonin, CHO-hMT2 cell line showing specific binding of 2-[^125I] Iodomelatonin was selected from the obtained clones.
# as §2, §3, §4, §5, §6, §7, §8, §9
# T1 sequence (P48039 whole entry): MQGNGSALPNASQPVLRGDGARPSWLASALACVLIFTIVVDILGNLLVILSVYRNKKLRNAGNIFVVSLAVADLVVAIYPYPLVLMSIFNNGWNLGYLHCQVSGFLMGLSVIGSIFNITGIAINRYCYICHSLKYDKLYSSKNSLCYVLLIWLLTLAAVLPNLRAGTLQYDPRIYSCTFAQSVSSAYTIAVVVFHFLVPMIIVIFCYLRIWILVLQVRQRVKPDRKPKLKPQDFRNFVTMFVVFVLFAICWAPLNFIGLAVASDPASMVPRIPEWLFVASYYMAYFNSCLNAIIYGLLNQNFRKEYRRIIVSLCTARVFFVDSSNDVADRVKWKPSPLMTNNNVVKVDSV
SMILES,IC50 [1],IC50 [2],melting point
"Cc1cc2c3c(ccn2n1)CCC3CCNC(=O)C1CC1 (stereo not drawn) [Example 33, N-[2-(2-methyl-8,9-dihydro-7H-cyclopenta[c]pyrazolo[1,5-a]pyridin-9-yl)ethyl]cyclopropanecarboxamide]",≤ 100 nM,≤ 100 nM,112 to 113 °C
"CCC(=O)NCCC1CCc2ccn3nccc3c21 (stereo not drawn) [Example 12, N-[2-(8,9-dihydro-7H-cyclopenta[c]pyrazolo[1,5-a]pyridin-9-yl)ethyl]propanamide]",≤ 100 nM,≤ 100 nM,72 to 73 °C
"CC(=O)NCCC1CCc2ccn3nc(C)c(C)c3c21 (stereo not drawn) [Example 14, N-[2-(1,2-dimethyl-8,9-dihydro-7H-cyclopenta[c]pyrazolo[1,5-a]pyridin-9-yl)ethyl]acetamide]",≤ 100 nM,≤ 100 nM,134 to 135 °C

# More lines, now with the values ahead:
IC50 [1],IC50 [2],melting point,SMILES
≤ 100 nM,≤ 100 nM,177 to 178 °C,"CC(=O)NCC=C1CCc2c(Cl)cc3nn(C)cc3c21 [Example 30, N-[2-(5-chloro-2-methyl-6,7-dihydrocyclopenta[e]indazol-8(2H)-ylidene)ethyl]acetamide]"
≤ 100 nM,≤ 100 nM,200 to 202 °C,"CC(=O)NCC=C1CCc2ccc3nn(C)cc3c21 [Example 1, N-[2-(2-methyl-6,7-dihydrocyclopenta[e]indazol-8(2H)-ylidene)ethyl]acetamide]"

# Reference: patent US8247429B2, “Tricyclic compound and pharmaceutical use thereof” (Takeda Pharmaceutical Company Limited, priority 2006, dated 2012)
